According to patent US20240270698A2, “NOVEL PYRIMIDINE DERIVATIVE AND USE THEREOF” (KOREA RESEARCH INSTITUTE OF CHEMICAL TECHNOLOGY, priority 2019, published 2024):
pIC50: −log10 of the molar value.

Experiments:
[1] = molecular target: T1, human recombinant LRRK2 protein (Homo sapiens, UniProt Q5S007); test: LRRK2 kinase activity assay (Eurofins, gamma-33P-ATP, filtermat scintillation counting); assay type: biochemical; details: human recombinant LRRK2, 40 minutes at room temperature
T1 construct: purchased Eurofins
T1 sequence (Q5S007 whole entry): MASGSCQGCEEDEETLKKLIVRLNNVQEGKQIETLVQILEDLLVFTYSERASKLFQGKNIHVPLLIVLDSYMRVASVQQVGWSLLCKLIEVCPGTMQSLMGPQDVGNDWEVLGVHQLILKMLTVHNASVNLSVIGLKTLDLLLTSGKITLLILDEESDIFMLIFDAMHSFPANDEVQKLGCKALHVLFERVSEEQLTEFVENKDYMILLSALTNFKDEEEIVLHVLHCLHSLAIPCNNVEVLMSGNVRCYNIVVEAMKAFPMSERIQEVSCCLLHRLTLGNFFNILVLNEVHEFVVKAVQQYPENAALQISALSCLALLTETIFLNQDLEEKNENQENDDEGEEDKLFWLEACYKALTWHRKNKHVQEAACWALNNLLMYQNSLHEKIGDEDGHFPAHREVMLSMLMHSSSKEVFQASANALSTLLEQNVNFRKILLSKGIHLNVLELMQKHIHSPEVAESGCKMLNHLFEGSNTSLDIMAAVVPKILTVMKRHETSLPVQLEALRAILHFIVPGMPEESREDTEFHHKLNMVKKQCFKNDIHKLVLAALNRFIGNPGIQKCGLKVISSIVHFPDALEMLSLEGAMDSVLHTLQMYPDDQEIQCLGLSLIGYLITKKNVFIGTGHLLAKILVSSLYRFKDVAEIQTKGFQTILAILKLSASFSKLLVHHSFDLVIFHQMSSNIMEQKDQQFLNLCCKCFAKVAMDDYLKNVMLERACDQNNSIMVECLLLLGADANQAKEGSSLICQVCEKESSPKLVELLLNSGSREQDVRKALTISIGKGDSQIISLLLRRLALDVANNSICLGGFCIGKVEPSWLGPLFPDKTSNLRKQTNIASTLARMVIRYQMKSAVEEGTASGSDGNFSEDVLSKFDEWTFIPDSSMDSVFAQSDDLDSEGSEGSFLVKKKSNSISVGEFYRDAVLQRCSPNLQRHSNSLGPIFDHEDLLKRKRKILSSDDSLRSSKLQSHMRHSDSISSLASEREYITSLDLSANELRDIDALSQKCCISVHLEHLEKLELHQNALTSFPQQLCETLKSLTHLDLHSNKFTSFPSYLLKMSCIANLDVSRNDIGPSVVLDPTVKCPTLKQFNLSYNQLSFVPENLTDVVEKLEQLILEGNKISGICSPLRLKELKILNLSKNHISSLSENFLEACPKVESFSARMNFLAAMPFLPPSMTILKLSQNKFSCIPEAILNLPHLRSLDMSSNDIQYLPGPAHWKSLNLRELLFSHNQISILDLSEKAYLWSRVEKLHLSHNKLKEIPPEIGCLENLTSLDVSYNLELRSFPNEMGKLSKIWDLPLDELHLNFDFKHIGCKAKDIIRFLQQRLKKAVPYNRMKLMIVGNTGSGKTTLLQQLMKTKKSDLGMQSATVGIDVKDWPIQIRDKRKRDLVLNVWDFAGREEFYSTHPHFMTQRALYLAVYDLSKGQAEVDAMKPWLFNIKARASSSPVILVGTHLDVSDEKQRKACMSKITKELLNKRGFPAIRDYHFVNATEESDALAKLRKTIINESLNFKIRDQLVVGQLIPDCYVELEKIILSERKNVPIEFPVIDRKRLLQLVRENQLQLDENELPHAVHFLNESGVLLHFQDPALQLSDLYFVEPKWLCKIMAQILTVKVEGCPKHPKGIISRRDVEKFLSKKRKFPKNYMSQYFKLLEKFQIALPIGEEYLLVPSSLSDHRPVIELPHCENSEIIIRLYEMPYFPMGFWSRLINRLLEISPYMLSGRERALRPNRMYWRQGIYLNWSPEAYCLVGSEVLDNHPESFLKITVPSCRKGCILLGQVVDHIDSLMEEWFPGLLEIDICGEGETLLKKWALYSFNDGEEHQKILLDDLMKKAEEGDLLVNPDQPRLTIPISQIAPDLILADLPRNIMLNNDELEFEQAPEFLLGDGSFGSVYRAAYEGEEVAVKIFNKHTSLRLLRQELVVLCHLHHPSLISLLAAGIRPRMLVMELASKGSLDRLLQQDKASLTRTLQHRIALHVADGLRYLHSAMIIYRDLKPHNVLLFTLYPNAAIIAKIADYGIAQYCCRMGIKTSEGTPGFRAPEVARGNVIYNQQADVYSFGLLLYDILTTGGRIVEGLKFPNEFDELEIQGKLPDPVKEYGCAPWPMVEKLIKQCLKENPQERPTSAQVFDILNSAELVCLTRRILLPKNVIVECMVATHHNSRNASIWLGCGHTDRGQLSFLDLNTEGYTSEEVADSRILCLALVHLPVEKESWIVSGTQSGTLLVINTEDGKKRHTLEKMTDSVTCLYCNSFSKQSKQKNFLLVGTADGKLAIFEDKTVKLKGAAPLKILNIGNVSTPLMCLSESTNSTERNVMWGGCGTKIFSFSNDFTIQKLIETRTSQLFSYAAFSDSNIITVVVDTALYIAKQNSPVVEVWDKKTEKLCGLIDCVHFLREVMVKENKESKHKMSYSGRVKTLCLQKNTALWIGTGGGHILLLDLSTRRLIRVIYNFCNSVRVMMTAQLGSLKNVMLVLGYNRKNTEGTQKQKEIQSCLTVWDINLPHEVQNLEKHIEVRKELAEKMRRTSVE
Description: (§1) Compounds 1 to 119 synthesized in Example 1 according to the present disclosure were assayed for inhibitory activity against MLK3/LRRK2 enzymes and anticancer activity against HepG2/HS746T cancer cells, and the results are summarized in Table 1, below.
(§2) Inhibitory activity against MLK3 and LRRK2 enzymes was evaluated in Eurofins. In brief, human recombinant MLK3 protein was mixed with the compounds in a reaction buffer (8 mM MOPS (pH 7.0), 0.2 mM EDTA, 0.33 mg/mL myelin basic protein, 5 mM DTT) to which a mixture of 10 mM magnesium acetate and gamma-33P-ATP was then added before incubation at room temperature for 120 minutes. Afterward, the reaction was terminated with 0.5% phosphoric acid. Ten μL of the total mixture was spotted onto a P30 filtermat which was then washed four times for 4 minutes with 0.425% phosphoric acid and once in methanol prior to scintillation counting. Values for the activity of MLK3 were expressed as % of the control. For the activity of LRRK2, human recombinant LRRK2 protein was mixed with the compounds in a reaction buffer (50 mM HEPES (pH 8.0), 0.2 mM EDTA, 0.01% Brij-35, 1% (w/v) BSA, 5 mM DTT, 250 uM substrate peptide RLGRDKYKTLRQIRQ) and then reacted with a mixture of 10 mM magnesium acetate and gamma-33P-ATP at room temperature for 40 minutes. Afterward, the reaction was terminated with 0.5% phosphoric acid. Ten μL of the total mixture was spotted onto a P30 filtermat which was then washed four times for 4 minutes with 0.425% phosphoric acid and once in methanol prior to scintillation counting. Values for the activity of LRRK2 were expressed as % of the control.

HS746T cancer cells = test: Anticancer activity, cell viability by CCK-8, HS746T; assay type: cell-based; details: 72 hours
Description: (§3) Compounds 1 to 119 synthesized in Example 1 according to the present disclosure were assayed for inhibitory activity against MLK3/LRRK2 enzymes and anticancer activity against HepG2/H[…] cancer cells, and the results are summarized in Table 1, below. Assay for anticancer activity was conducted as follows. HepG2 and H[…] cancer cells were purchased from the Korean Cell Line Bank and cultured according to the instruction provided thereby. One hundred μL of a culture of the cells were seeded at a density of 4,000 cells/well into 96-well plates. After 24 hours, the cells were treated with the compounds for 72 hours. Then, cell viability was assayed using CCK-8 and expressed as % of the control.

[2] = molecular target: T2, human recombinant MLK3 protein (Homo sapiens, UniProt Q16584); test: MLK3 kinase activity assay (Eurofins, gamma-33P-ATP, filtermat scintillation counting); assay type: biochemical; details: human recombinant MLK3, 120 minutes at room temperature
T2 construct: purchased Eurofins
T2 sequence (Q16584 whole entry): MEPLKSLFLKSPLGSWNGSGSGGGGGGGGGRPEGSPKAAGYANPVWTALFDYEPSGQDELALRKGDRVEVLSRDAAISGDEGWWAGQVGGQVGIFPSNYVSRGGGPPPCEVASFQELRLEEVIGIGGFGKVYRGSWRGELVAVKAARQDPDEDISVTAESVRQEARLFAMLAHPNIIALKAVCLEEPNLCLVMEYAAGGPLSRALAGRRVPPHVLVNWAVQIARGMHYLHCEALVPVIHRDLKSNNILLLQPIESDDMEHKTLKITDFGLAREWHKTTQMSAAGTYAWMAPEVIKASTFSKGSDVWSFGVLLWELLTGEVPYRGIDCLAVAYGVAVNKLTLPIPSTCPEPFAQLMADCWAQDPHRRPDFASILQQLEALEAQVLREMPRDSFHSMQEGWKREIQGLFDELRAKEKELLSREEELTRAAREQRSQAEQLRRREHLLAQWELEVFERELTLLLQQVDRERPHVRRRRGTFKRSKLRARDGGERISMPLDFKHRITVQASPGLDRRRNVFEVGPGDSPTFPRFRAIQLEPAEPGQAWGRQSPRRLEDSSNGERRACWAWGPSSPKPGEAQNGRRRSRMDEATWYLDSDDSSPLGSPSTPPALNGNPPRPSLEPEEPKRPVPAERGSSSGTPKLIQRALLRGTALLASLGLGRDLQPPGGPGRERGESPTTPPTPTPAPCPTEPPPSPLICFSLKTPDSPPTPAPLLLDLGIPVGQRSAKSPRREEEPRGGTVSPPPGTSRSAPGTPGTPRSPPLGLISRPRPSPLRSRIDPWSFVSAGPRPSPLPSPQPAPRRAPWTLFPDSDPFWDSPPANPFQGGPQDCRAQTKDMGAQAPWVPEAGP
Description: as §1, §2

HepG2 cancer cells = test: Anticancer activity, cell viability by CCK-8, HepG2; assay type: cell-based; details: HepG2, 10 μM, 72 hours
Description: as §3

SMILES	pIC50 [1]	pIC50 [2]	Cell viability (% of Con. 10 μM) HS746T (HS746T cancer cells)	Cell viability (% of Con. 10 μM) HepG2 (HepG2 cancer cells)
COc1cc2c(cc1Nc1ncc(Cl)c(Nc3ccccc3P(C)(C)=O)n1)CN(C(=O)C(F)(F)F)CC2 [compound 62, 1-(7-((5-chloro-4-((2-(dimethylphosphoryl)phenyl)amino)pyrimidin-2-yl)amino)-6-methoxy-3,4-dihydroisoquinolin-2(1H)-yl)-2,2,2-trifluoroethan-1-one]	8.00 to 9.00	8.00 to 9.00	13 % of Con.	26 % of Con.
CP(C)(=O)c1ccccc1Nc1nc(Nc2ccc3cn[nH]c3c2)ncc1Cl [compound 64, (2-((2-((1H-Indazol-6-yl)amino)-5-chloropyrimidin-4-yl)amino)phenyl)dimethylphosphine oxide]	8.00 to 9.00	8.00 to 9.00	29 % of Con.	23 % of Con.
CP(C)(=O)c1ccccc1Nc1nc(Nc2ccc3[nH]ccc3c2)ncc1Cl [compound 65, (2-((2-((1H-Indol-5-yl)amino)-5-chloropyrimidin-4-yl)amino)phenyl)dimethylphosphine oxide]	8.00 to 9.00	8.00 to 9.00	23 % of Con.	20 % of Con.
CP(C)(=O)c1ccccc1Nc1nc(Nc2ccc3[nH]ncc3c2)ncc1Cl [compound 66, (2-((2-((1H-Indazol-5-yl)amino)-5-chloropyrimidin-4-yl)amino)phenyl)dimethylphosphine oxide]	8.00 to 9.00	8.00 to 9.00	22 % of Con.	31 % of Con.
CP(C)(=O)c1ccccc1Nc1nc(Nc2cccc3[nH]ccc23)ncc1Cl [compound 68, (2-((2-((1H-Indol-4-yl)amino)-5-chloropyrimidin-4-yl)amino)phenyl)dimethylphosphine oxide]	8.00 to 9.00	7.00 to 8.00	64 % of Con.	43 % of Con.
Cc1cc2cc(Nc3ncc(Cl)c(Nc4ccccc4P(C)(C)=O)n3)ccc2[nH]1 [compound 69, (2-((5-Chloro-2-((2-methyl-1H-indol-5-yl)amino)pyrimidin-4-yl)amino)phenyl)dimethylphosphine oxide]	8.00 to 9.00	8.00 to 9.00	23 % of Con.	29 % of Con.
Cc1ccc(Nc2ncc(Cl)c(Nc3ccccc3P(C)(C)=O)n2)c2[nH]cc(C#N)c12 [compound 70, 7-((5-chloro-4-((2-(dimethylphosphoryl)phenyl)amino)pyrimidin-2-yl)amino)-4-methyl-1H-indole-3-carbonitrile]	8.00 to 9.00	7.00 to 8.00	25 % of Con.	30 % of Con.
CP(C)(=O)c1ccccc1Nc1nc(Nc2cccc3cc[nH]c23)ncc1Cl [compound 71, (2-((2-((1H-Indol-7-yl)amino)-5-chloropyrimidin-4-yl)amino)phenyl)dimethylphosphine oxide]	8.00 to 9.00	7.00 to 8.00	83 % of Con.	63 % of Con.
CP(C)(=O)c1ccccc1Nc1nc(Nc2ccc3c(c2)CN(C(=O)C(F)(F)F)C3)ncc1Cl [compound 72, 1-(5-((5-Chloro-4-((2-(dimethylphosphoryl)phenyl)amino)pyrimidin-2-yl)amino)isoindolin-2-yl)-2,2,2-trifluoroethan-1-one]	8.00 to 9.00	7.00 to 8.00	9 % of Con.	35 % of Con.
CP(C)(=O)c1ccccc1Nc1nc(Nc2ccc3c(c2)CNC3)ncc1Cl [compound 73, (2-((5-Chloro-2-(isoindolin-5-ylamino)pyrimidin-4-yl)amino)phenyl)dimethylphosphine oxide]	8.00 to 9.00	8.00 to 9.00	0.5 % of Con.	19 % of Con.
CP(C)(=O)c1ccccc1Nc1nc(Nc2ccc3[nH]c(C(F)(F)F)nc3c2)ncc1Cl [compound 75, (2-((5-Chloro-2-((2-(trifluoromethyl)-1H-benzo[d]imidazol-5-yl)amino)pyrimidin-4-yl)amino)phenyl)dimethylphosphine oxide]	8.00 to 9.00	7.00 to 8.00	21 % of Con.	28 % of Con.
CP(C)(=O)c1ccccc1Nc1nc(Nc2cnc3[nH]nc(-c4cccnc4F)c3c2)ncc1Cl [compound 98, (2-((5-Chloro-2-((3-(2-fluoropyridin-3-yl)-1H-pyrazolo[3,4-b]pyridin-5-yl)amino)pyrimidin-4-yl)amino)phenyl)dimethylphosphine oxide]	8.00 to 9.00	8.00 to 9.00	10 % of Con.	27 % of Con.

More lines, main results first:

pIC50 [1]	pIC50 [2]	SMILES	Cell viability (% of Con. 10 μM) HS746T (HS746T cancer cells)	Cell viability (% of Con. 10 μM) HepG2 (HepG2 cancer cells)
8.00 to 9.00	8.00 to 9.00	CP(C)(=O)c1ccccc1Nc1nc(Nc2ccc3[nH]nc(Br)c3c2)ncc1Cl [compound 67, (2-((2-((3-Bromo-1H-indazol-5-yl)amino)-5-chloropyrimidin-4-yl)amino)phenyl)dimethylphosphine oxide]	25 % of Con.	33 % of Con.
8.00 to 9.00	8.00 to 9.00	CC(C)n1cc(-c2n[nH]c3ccc(Nc4ncc(Cl)c(Nc5ccccc5P(C)(C)=O)n4)cc23)cn1 [compound 93, (2-((5-Chloro-2-((3-(1-isopropyl-1H-pyrazol-4-yl)-1H-indazol-5-yl)amino)pyrimidin-4-yl)amino)phenyl)dimethylphosphine oxide]	18 % of Con.	42 % of Con.
8.00 to 9.00	8.00 to 9.00	Cn1cc(-c2n[nH]c3ccc(Nc4ncc(Cl)c(Nc5ccccc5P(C)(C)=O)n4)cc23)cn1 [compound 94, (2-((5-Chloro-2-((3-(1-methyl-1H-pyrazol-4-yl)-1H-indazol-5-yl)amino)pyrimidin-4-yl)amino)phenyl)dimethylphosphine oxide]	15 % of Con.	30 % of Con.
8.00 to 9.00	8.00 to 9.00	CCCn1cc(-c2n[nH]c3ccc(Nc4ncc(Cl)c(Nc5ccccc5P(C)(C)=O)n4)cc23)cn1 [compound 95, (2-((5-Chloro-2-((3-(1-propyl-1H-pyrazol-4-yl)-1H-indazol-5-yl)amino)pyrimidin-4-yl)amino)phenyl)dimethylphosphine oxide]	19 % of Con.	39 % of Con.
8.00 to 9.00	8.00 to 9.00	CP(C)(=O)c1ccccc1Nc1nc(Nc2ccc3[nH]nc(-c4ccccc4)c3c2)ncc1Cl [compound 96, (2-((5-chloro-2-((3-phenyl-1H-indazol-5-yl)amino)pyrimidin-4-yl)amino)phenyl)dimethylphosphine oxide]	10 % of Con.	15 % of Con.
8.00 to 9.00	8.00 to 9.00	CP(C)(=O)c1ccccc1Nc1nc(Nc2ccc3[nH]nc(-c4cccc([N+](=O)[O-])c4)c3c2)ncc1Cl [compound 97, (2-((5-Chloro-2-((3-(3-nitrophenyl)-1H-indazol-5-yl)amino)pyrimidin-4-yl)amino)phenyl)dimethylphosphine oxide]	11 % of Con.	21 % of Con.
8.00 to 9.00	8.00 to 9.00	CC(=O)N1CC=C(c2n[nH]c3ccc(Nc4ncc(Cl)c(Nc5ccccc5P(C)(C)=O)n4)cc23)CC1 [compound 99, 1-(4-(5-((5-Chloro-4-((2-(dimethylphosphoryl)phenyl)amino)pyrimidin-2-yl)amino)-1H-indazol-3-yl)-3,6-dihydropyridin-1(2H)-yl)ethan-1-one]	9 % of Con.	26 % of Con.
7.00 to 8.00	8.00 to 9.00	CP(C)(=O)c1ccccc1Nc1nc(Nc2ccc3[nH]nc(-c4ccc(CO)o4)c3c2)ncc1Cl [compound 101, (2-((5-chloro-2-((3-(5-(hydroxymethyl)furan-2-yl)-1H-indazol-5-yl)amino)pyrimidin-4-yl)amino)phenyl)dimethylphosphine oxide]	13 % of Con.	56 % of Con.
